Patent US20230398130A1, “METHODS AND COMPOSITIONS FOR DIFFERENTIATING STEM CELLS” (Massachusetts Institute of Technology, priority 2020, published 2023)
“Also recorded” adds a separate entry of the source.

How the values were obtained:
ISC-enriched organoids [1] = experiment: Primary screen, 384-well 2.5-D organoid differentiation (ENR+CD, 6 days): basal lysozyme secretion (LYZ.NS); type: cell-based, murine; conditions: SSMD in LYZ.NS and LYZ.S assays
Excerpt: High-throughput screening.

ISC-enriched organoids [2] = experiment: Lysozyme secretion assay, 3-D organoids in ENR+CD, normalized to ATP; type: cell-based, murine; conditions: for Paneth cell differentiation (functional LYZ secretion), compound alone: 6-day ENR+CD differentiation, 10 μM SR11302, 20 nM Cobimetinib, others over a dose range; for Paneth cell differentiation (functional LYZ secretion), in combination with KPT-330: 6-day ENR+CD differentiation with 160 nM KPT-330
Protocol: Lysozyme assay (3D culture). ISC-enriched organoids cultured in 3D Matrigel with ENRCV media were passaged to 48-well plate in 3D Matrigel with ENRCV. At day zero, media were replaced to ENR or ENRCD with or without indicated compounds, and media were replaced every other day. At day six, cells were washed twice with basal media and treated with carbamylcholine chloride (Sigma, C4382) for 3 hours. Media were collected and lysozyme activity was measured by EnzChek Lysozyme Assay Kit (ThermoFisher, E22013).
(§1) Lysozyme secretion assay. ISC-enriched organoids in 3D Matrigel culture were passaged to a 48- or 96-well plate and cultured with ENR or ENR+CD media containing DMSO or each drug for 6 days. DMSO- or drug-containing media were changed every other day. On day 6, cells were washed with basal media twice and treated with basal media with or without 10 μM carbamoylcholine chloride for 3 h in a CO2 incubator at 37° C. A part of the conditioned media was collected and used for lysozyme assay (Thermo, E-22013) following the manufacturer's instruction. The fluorescence was measured using excitation/emission of 485/530 nm. CellTiter-Glo 3D Reagent (Promega, G9681) was added afterward, and the cell culture plate was incubated on an orbital shaker at RT for 30 min to induce cell lysis and to stabilize the luminescent signal. The solution was replaced to a 96-well white microplate, and luminescent signals were measured by a microplate reader (infinite M200, Tecan). The standard curve was prepared by diluting recombinant ATP (Promega, P1132). For both assays, a polynomial cubic curve was fitted to a set of standard data, and each sample value was calculated on the Microsoft Excel.
as §1, with “in 3-D” for “in 3D”, “μM carbachol” for “μM carbamoylcholine chloride”, “3 hours” for “3 h”, “C. Conditioned” for “C. A part of the conditioned”, “nm. CTG” for “nm. CellTiter-Glo”, “Reagent” for “Reagent (Promega, G9681)”

Q: Which results are given for `COc1cc2c(Nc3ccc(NC(=O)c4ccccc4)cc3)ncnc2cc1OCCCN1CCOCC1` [ZM447439, reference compound]?
A: primary screen hit call (ISC-enriched organoids [1]): lower-effect size hit; Paneth cell differentiation (functional LYZ secretion), compound alone (ISC-enriched organoids [2]): did significantly increase Paneth cell differentiation

Q: For `O=C(c1ccc(F)c(F)c1Nc1ccc(I)cc1F)N1CC(O)([C@@H]2CCCCN2)C1` [cobimetinib], which “Paneth cell differentiation (functional LYZ secretion), in combination with KPT-330” value (ISC-enriched organoids [2]) is on record?
A: differentiation was enhanced; also recorded: significantly enhance Paneth cell differentiation; also recorded: proved synergistic in combination with KPT-330

Q: What about the “Paneth cell differentiation (functional LYZ secretion), compound alone” value (ISC-enriched organoids [2]) of the same molecule?
A: did not significantly alter Paneth cell differentiation

Q: How did the “Paneth cell differentiation (functional LYZ secretion), in combination with KPT-330” value (ISC-enriched organoids [2]) turn out when `Cc1ccc(C(=O)Cn2c3c(sc2=N)CCCC3)cc1` [pifithrin-a] was run?
A: neither P53 inhibitor altered Paneth cell differentiation; also recorded: did not alter Paneth cell differentiation

Q: And the “Paneth cell differentiation (functional LYZ secretion), compound alone” value (ISC-enriched organoids [2])?
A: neither P53 inhibitor altered Paneth cell differentiation; also recorded: did not alter Paneth cell differentiation

Q: What does the source list for `c1ccc2c(CCNc3ccc(Nc4ccncc4)cc3)c[nH]c2c1` [serdemetan]?
A: Paneth cell differentiation (functional LYZ secretion), in combination with KPT-330 (ISC-enriched organoids [2]): neither P53 inhibitor altered Paneth cell differentiation; also recorded: did not alter Paneth cell differentiation; Paneth cell differentiation (functional LYZ secretion), compound alone (ISC-enriched organoids [2]): neither P53 inhibitor altered Paneth cell differentiation; also recorded: did not alter Paneth cell differentiation
